According to article PMC10892984, “Novel Antineoplastic Inducers of Mitochondrial Apoptosis in Human Cancer Cells” (Molecules, 2024):

What was measured:
HS 578T = conditions: 48 h
[1] = Homo sapiens, 48 h, read-out: LC50

c1cc(CNC23CC4CC(CC(C4)C2)C3)cc(C[N+](Cc2cccc(CNC34CC5CC(CC(C5)C3)C4)c2)(Cc2cccc(CNC34CC5CC(CC(C5)C3)C4)c2)Cc2cccc(CNC34CC5CC(CC(C5)C3)C4)c2)c1 (stereo not drawn) [Compound 1, tetrakis{3-[(tricyclo[3.3.1.1^3,7]decan-1-ammonio)methyl]benzyl}ammonium pentachloride]
GI50 (OVCAR-8; Homo sapiens, OVCAR-8, 48 h): 2.07 µM
CC50 (OVCAR-8; Homo sapiens, OVCAR-8, 48 h, read-out: LC50): 35.3 µM
TGI (OVCAR-8; OVCAR-8, ovarian cancer, mutant p53, 48 h): 8.48 µM
GI50 (SK-MEL-2; Homo sapiens, SK-MEL-2, 48 h): 1.06 µM
CC50 (SK-MEL-2; Homo sapiens, SK-MEL-2, 48 h, read-out: LC50): 15.6 µM
TGI (SK-MEL-2; SK-MEL-2, melanoma, mutant p53, 48 h): 3.20 µM
GI50 (SF-295; Homo sapiens, SF-295, 48 h): 3.05 µM
CC50 (SF-295; Homo sapiens, SF-295, 48 h, read-out: LC50): 28.2 µM
TGI (SF-295; SF-295, CNS cancer (brain tumor), mutant p53, 48 h): 10.4 µM
GI50 (SNB-75; Homo sapiens, SNB-75, 48 h): 2.34 µM
CC50 (SNB-75; Homo sapiens, SNB-75, 48 h, read-out: LC50): 27.9 µM
TGI (SNB-75; SNB-75, CNS cancer (brain tumor), mutant p53, 48 h): 9.73 µM
GI50 (SN12C; Homo sapiens, 48 h): 1.41 µM
CC50 (SN12C; [1]): 15.8 µM
TGI (SN12C; renal cancer, mutant p53, 48 h): 4.43 µM
GI50 (NCI-H460; Homo sapiens, NCI-H460, 48 h): 1.19 µM
CC50 (NCI-H460; Homo sapiens, NCI-H460, 48 h, read-out: LC50): 17.9 µM
TGI (NCI-H460; NCI-H460, non-small-cell lung cancer, wild-type p53, 48 h): 2.71 µM
GI50 (SF-539; Homo sapiens, SF-539, 48 h): 1.01 µM
CC50 (SF-539; Homo sapiens, SF-539, 48 h, read-out: LC50): 7.59 µM
TGI (SF-539; SF-539, CNS cancer (brain tumor), mutant p53, 48 h): 2.48 µM
GI50 (RPMI-8226; Homo sapiens, RPMI-8226, 48 h): 1.32 µM
CC50 (RPMI-8226; Homo sapiens, RPMI-8226, 48 h, read-out: LC50): > 50 µM
TGI (RPMI-8226; RPMI-8226, leukemia, mutant p53, 48 h): 3.99 µM
TGI (COLO 205; COLO 205, colon cancer, mutant p53, 48 h): 3.13 µM
GI50 (COLO 205; Homo sapiens, COLO 205, 48 h): 1.09 µM
CC50 (COLO 205; Homo sapiens, COLO 205, 48 h, read-out: LC50): 24.8 µM
GI50 (UACC-62; Homo sapiens, UACC-62, 48 h): 1.16 µM
CC50 (UACC-62; Homo sapiens, UACC-62, 48 h, read-out: LC50): 14.2 µM
TGI (UACC-62; UACC-62, melanoma, wild-type p53, 48 h): 3.68 µM
GI50 (MCF7; Homo sapiens, MCF7, 48 h): 1.07 µM
CC50 (MCF7; Homo sapiens, MCF7, 48 h, read-out: LC50): 45.8 µM
TGI (MCF7; MCF7, breast cancer, wild-type p53, 48 h): 6.19 µM
GI50 (MDA-MB-231; Homo sapiens, MDA-MB-231, 48 h): 2.09 µM
CC50 (MDA-MB-231; Homo sapiens, MDA-MB-231, 48 h, read-out: LC50): 22.7 µM
TGI (MDA-MB-231; MDA-MB-231, breast cancer, mutant p53, 48 h): 7.41 µM
TGI (HS 578T; HS 578T, breast cancer, mutant p53): 11.8 µM
GI50 (HS 578T; Homo sapiens, Hs-578T): 1.92 µM
CC50 (HS 578T; Homo sapiens, Hs-578T, read-out: LC50): > 50 µM
TGI (A498; A498, renal cancer, wild-type p53, 48 h): 7.05 µM
GI50 (A498; Homo sapiens, A498, 48 h): 1.19 µM
CC50 (A498; Homo sapiens, A498, 48 h, read-out: LC50): 21.2 µM
GI50 (OVCAR-5; Homo sapiens, OVCAR-5, 48 h): 0.977 µM
CC50 (OVCAR-5; Homo sapiens, OVCAR-5, 48 h, read-out: LC50): 10.8 µM
TGI (OVCAR-5; OVCAR-5, ovarian cancer, p53 Lit. inconclusive, 48 h): 2.76 µM
GI50 (MOLT-4; Homo sapiens, MOLT-4, 48 h): 1.32 µM
CC50 (MOLT-4; Homo sapiens, MOLT-4, 48 h, read-out: LC50): > 50 µM
TGI (MOLT-4; MOLT-4, leukemia, mutant p53, 48 h): 4.09 µM
TGI (HCT-15; HCT-15, colon cancer, mutant p53, 48 h): 3.91 µM
GI50 (HCT-15; Homo sapiens, HCT-15, 48 h): 1.1 µM
CC50 (HCT-15; Homo sapiens, HCT-15, 48 h, read-out: LC50): 18.4 µM
TGI (DU-145; DU-145, prostate cancer, mutant p53, 48 h): 4.61 µM
GI50 (DU-145; Homo sapiens, DU-145, 48 h): 1.47 µM
CC50 (DU-145; Homo sapiens, DU-145, 48 h, read-out: LC50): 15.2 µM
GI50 (OVCAR-3; Homo sapiens, OVCAR-3, 48 h): 1.04 µM
CC50 (OVCAR-3; Homo sapiens, OVCAR-3, 48 h, read-out: LC50): 9.97 µM
TGI (OVCAR-3; OVCAR-3, ovarian cancer, mutant p53, 48 h): 2.82 µM
GI50 (NCI-H226; Homo sapiens, NCI-H226, 48 h): 2.76 µM
CC50 (NCI-H226; Homo sapiens, NCI-H226, 48 h, read-out: LC50): 31.2 µM
TGI (NCI-H226; NCI-H226, non-small-cell lung cancer, p53 Lit. inconclusive, 48 h): 10.8 µM
GI50 (SF-268; Homo sapiens, SF-268, 48 h): 1.53 µM
CC50 (SF-268; Homo sapiens, SF-268, 48 h, read-out: LC50): 30.8 µM
TGI (SF-268; SF-268, CNS cancer (brain tumor), mutant p53, 48 h): 5.41 µM
GI50 (UO-31; Homo sapiens, UO-31, 48 h): 0.817 µM
CC50 (UO-31; Homo sapiens, UO-31, 48 h, read-out: LC50): 4.73 µM
TGI (UO-31; UO-31, renal cancer, wild-type p53, 48 h): 1.96 µM
GI50 (M14; Homo sapiens, M14, 48 h): 0.803 µM
CC50 (M14; Homo sapiens, M14, 48 h, read-out: LC50): 6.82 µM
TGI (M14; M14, melanoma, mutant p53, 48 h): 2.08 µM
GI50 (NCI-H522; Homo sapiens, NCI-H522, 48 h): 0.731 µM
CC50 (NCI-H522; Homo sapiens, NCI-H522, 48 h, read-out: LC50): 3.3 µM
TGI (NCI-H522; NCI-H522, non-small-cell lung cancer, mutant p53, 48 h): 1.55 µM
GI50 (TK-10; Homo sapiens, TK-10, 48 h): 1.85 µM
CC50 (TK-10; Homo sapiens, TK-10, 48 h, read-out: LC50): 21.5 µM
TGI (TK-10; TK-10, renal cancer, mutant p53, 48 h): 7.17 µM
TGI (HCT-116; HCT-116, colon cancer, wild-type p53, 48 h): 2.01 µM
GI50 (HCT-116; Homo sapiens, HCT-116, 48 h): 0.728 µM
CC50 (HCT-116; Homo sapiens, HCT-116, 48 h, read-out: LC50): 6.47 µM
GI50 (LOX IMVI; Homo sapiens, 48 h): 0.505 µM
CC50 (LOX IMVI; [1]): 3.18 µM
TGI (LOX IMVI; melanoma, wild-type p53, 48 h): 1.27 µM
